What all share (format): physicochemical
A short description of data set [1]: Solvent addition to Amorphous freebase.
Data set [2] can be described thus: Thermal treatment of solid forms. As to conditions: held 10 min; for XRPD after thermal treatment to 210° C.: 30 to 210° C. at 10° C./min, cooled to 30° C. On the procedure: Thermal treatment of the Amorphous freebase was carried out. 10 mg of amorphous Compound 1 freebase was weighed into a 100 μL DSC pan. The pan was heated at a rate of 10° C./min to 200° C., held at 200° C. for 10 min, then cooled at a rate of 20° C./min to 25° C. Data not shown. The resulting solids were brittle and dark-orange. The solids sampled for XRPD, NMR, and HPLC purity analysis indicated decomposition of Compound 1 freebase rather than maintaining the amorphous state or conversion to a crystalline form.
Thermal treatment of Form III freebase to 210° C. was carried out. Approximately 5 mg of Form III freebase was weighed into a DSC pan. The sample was heated from 30° C. to 210° C. at a rate of 10° C./min, held at 210° C. for 10 min, then cooled from 210° C. to 30° C. at a rate of 20° C./min. […] Data not shown. The peaks at 16.2 °2θ and 20.1 °2θ may have been due to trace amounts of Form II freebase (Example 3).
Thermal treatment of Form IV freebase to 210° C. was carried out. Approximately 5 mg of Form IV freebase was weighed into a DSC pan. The sample was heated from 30° C. to 210° C. at a rate of 10° C./min, held at 210° C. for 10 min, then cooled from 210° C. to 30° C. at a rate of 20° C./min.

Data set [3] in a line: Solid form stability studies, 75% RH at 40° C. for one week (XRPD and HPLC). As to conditions: for XRPD (tested material): 75% ± 5% RH at 40° C. ± 2° C. for 1 week; for Purity % a/a (tested material) / Purity % a/a (input material): HPLC; for Purity % a/a (tested material): after 75% ± 5% RH at 40° C. ± 2° C. for 1 week; for Purity % a/a (input material): before stability test. As for the experimental part:
Solid form stability studies were performed on Form I-V freebase forms by weighing approximately 10-15 mg of the crystalline material into 4 mL vials and covering with a lab grade task wipe (Kimwipe). These vials were placed inside a stability chamber set at 75%±5% relative humidity (RH) at 40° C.±2° C., where they were left for one week (7 full days). The retrieved material was then analyzed by XRPD and HPLC. In each case, the initial material and tested material were identical by XRPD, with the exception of Form I freebase, where an extra peak at 5.8 °2θ in the initial material was absent after the stability test. HPLC purities of the tested material were essentially unchanged from those of the initial material.

The nature of data set [4]: Dry and solvent-drop milling of Form I freebase. As to conditions: 16 s at 3500 rpm. On the procedure: Dry and solvent-drop milling on pure-phase Form I freebase was performed using a ball mill with ¼ inch stainless steel ball as milling media. Approximately 30-35 mg of Form I freebase was weighed into a milling capsule and 1 vol. of solvent (solvent drop) was added. The milling was carried out for 16 s at 3500 rpm. Overall, no new patterns were identified from dry and solvent-drop milling experiments. […] Loss of crystallinity was most evident in the dry-milled sample, though Form I freebase pattern was still readily distinguished.

Data set [5] is described as follows: First set of competitive slurry experiments (Form I-IV freebases). To be noted: for relative stability of Forms I-IV freebases: five solvent systems; for evidence of form by XRPD after 2 days: slurries seeded with Forms I-IV, RT or 50° C., all experiments. On the procedure: Competitive slurry experiments were carried out with Form I-IV freebases at two temperatures, room temperature (RT) and 50° C., in five solvents/solvent systems. First, saturated solutions of Form I freebase (Example 2) were prepared at each temperature in each solvent system. To make the saturated solutions, Form I freebase was added to 2 mL of solvent already stirring at the desired temperature, either room temperature (RT) or at 50° C. Once a thin slurry was observed, the samples were left to equilibrate overnight. After stirring overnight, the stir bars were removed to allow the solids to settle, and the supernatant was pipetted into clean 4 mL vials containing a 10 mm stir bar.
The supernatant was then left to stir for an additional 15 min prior to adding seeds (approximately 5 mg per form, pre-weighed) of the following patterns: Form I freebase (Example 2), Form II freebase (Example 3), Form III freebase (Example 4) and Form IV freebase (Example 5). Samples of the slurries were plated for XRPD analysis immediately after seeding. The slurries were then sampled again after 2 days and 7 days at the respective temperatures.

A short description of data set [6]: Dynamic Vapor Sorption (DVS). As to conditions: for water uptake, weight gain between 5-95% relative humidity (RH) / hygroscopicity: DVS; for DVS mass change 5-95% RH (wt. %) / water uptake, weight gain between 5-95% relative humidity (RH): 5-95% RH; for hygroscopicity: all adsorbed water lost during the drying cycle; for XRPD pre- and post-DVS: form stability after DVS cycle. On the procedure:
DVS was performed using TA Instruments Q5000SA. The sample (5-15 mg) was loaded into a metallic quartz sample pan, suspended from a microbalance, and exposed to a humidified stream of nitrogen gas. Weight changes were relative to a matching empty reference pan opposite the sample, suspended from the microbalance. The sample was held for a minimum of 10 min at each level and only progressed to the next humidity level if there was <0.002% change in weight between measurements (interval: 5 s) or 45 min had elapsed (for 5-65% RH) or 2 h had elapsed (for 80 and 95% RH). Mass change by DVS is related to hygroscopicity.

Data set [7] in a line: Drying of Patterns overnight at 50° C. As to conditions: XRPD. On the procedure: For fast-cooling crystallization, Form I freebase was obtained from methanol (MeOH), MeOH:water (9:1 vol.), ethanol (EtOH):water (9:1 vol.), ethyl acetate (EtOAc):N,N-dimethylformamide (DMF) (9:1 vol.), and EtOH:tetrahydrofuran (THF) (3:7 vol.). Form II freebase (Example 3) was obtained from THF, and from acetonitrile:dimethylformamide (DMF) (9:1 vol.) as a mixture with Form I freebase. Pattern C (Example 7) was obtained from isopropanol (IPA):water (9:1 vol.) at −20° C.
Pattern B (Example 7) was obtained from dimethylacetamide (DMAc)/methyl isobutyl ketone (MIBK) after standing overnight at −20° C. […] A mixture of Form III freebase (Example 4) (major) and Form I freebase (minor) was obtained from the direct addition of water into dimethylsulfoxide (DMSO). The ratio of the two patterns was unchanged after drying in vacuo at 50° C. for 4 h. Reverse addition (DMSO/water) gave Form III freebase (Example 4) alone, with no evidence of Form I freebase. Reverse antisolvent addition (dimethylacetamide (DMAc)/water or N-methylpyrrolidone (NMP)/water) gave Form IV freebase (Example 5).
Pattern B freebase was obtained from dimethylacetamide (DMAc)/methyl isobutyl ketone (MIBK) after standing overnight at −20° C. See Example 2, Table 2B. […] The XRPD of Pattern B freebase, taken before drying, is provided in FIG. 7C, and the corresponding signal list is provided in Table 7B.
Pattern C freebase was obtained from isopropanol (IPA):water (9:1 vol.) at −20° C.

As to `CC(C)(O)CNc1nnc(-c2ccc(Cl)cc2O)c2ccncc12` [Amorphous freebase, 5-chloro-2-(4-((2-hydroxy-2-methylpropyl)amino)pyrido[3,4-d]pyridazin-1-yl)phenol], the “form conversion upon addition of solvent” value in data set [1] (5 vol. acetone) is “Rapid conversion of the Amorphous freebase to Form I freebase”; in data set [1] (toluene), “rapid conversion of the Amorphous freebase to Form II freebase”. In data set [2] (heated 10° C./min to 200° C., cooled to 25° C.), the “XRPD, NMR, and HPLC purity analysis after thermal treatment” value is on record as “decomposition”.
Turning to `CC(C)(O)CNc1nnc(-c2ccc(Cl)cc2O)c2ccncc12` [Form I freebase, 5-chloro-2-(4-((2-hydroxy-2-methylpropyl)amino)pyrido[3,4-d]pyridazin-1-yl)phenol], the “XRPD (tested material)” value in data set [3] is on record as “Form I”. Besides, the “Purity % a/a (tested material)” value in data set [3] is 97.94 % a/a. Also, the “Purity % a/a (input material)” value in data set [3] is recorded as 98.06 % a/a. Further, the XRPD after milling result in data set [4] (None (dry)), in data set [4] (solvent drop 1 vol. Acetone), in data set [4] (solvent drop 1 vol. Isopropanol:water (9:1 vol.)), in data set [4] (solvent drop 1 vol. Methanol (MeOH)), in data set [4] (solvent drop 1 vol. Tetrahydrofuran (THF)) and in data set [4] (solvent drop 1 vol. acetonitrile:dimethylformamide (8:2 vol.)) was “Form I” each time. Moreover, in data set [4] (ball mill), the “XRPD after dry and solvent-drop milling (overall)” value is listed as “remained largely unchanged”. Moreover, in data set [5] (RT and 50° C.), the “relative stability of Forms I-IV freebases” value is listed as “more stable”. For the same molecule, the “DVS mass change 5-95% RH (wt. %)” value in data set [6] is given as 0.5 wt. %. For the same molecule, in data set [6], the “water uptake, weight gain between 5-95% relative humidity (RH)” value amounted to 0.5%. Besides, in data set [6], the hygroscopicity result is recorded as “slightly, hygroscopic”. The “XRPD pre- and post-DVS” value in data set [6] is recorded as “remain unchanged”.
Turning to `CC(C)(O)CNc1nnc(-c2ccc(Cl)cc2O)c2ccncc12` [Form II freebase, 5-chloro-2-(4-((2-hydroxy-2-methylpropyl)amino)pyrido[3,4-d]pyridazin-1-yl)phenol], in data set [3], the “XRPD (tested material)” value is listed as “Form II”, the “Purity % a/a (tested material)” value is reported as 98.12 % a/a and the “Purity % a/a (input material)” value was found to be 98.12 % a/a. In data set [5] (RT and 50° C., 7 days), the “form favored after 7 days” value is “favored in most solvent systems”. Moreover, the “relative stability of Forms I-IV freebases” value in data set [5] (RT and 50° C.) was “more stable”. For the same molecule, the “form favored, Form II vs Form I” value in data set [5] (overall conclusion of first set) is listed as “favored over Form I freebase in all solvent systems except acetone:water (7:3 vol.)”. In data set [6], the “DVS mass change 5-95% RH (wt. %)” value was found to be 1.03 wt. %; the “water uptake, weight gain between 5-95% relative humidity (RH)” value is given as “about 1.03%”; the hygroscopicity entry is reported as “slightly, hygroscopic”; the “XRPD pre- and post-DVS” value is reported as “remained unchanged”.
For `CC(C)(O)CNc1nnc(-c2ccc(Cl)cc2O)c2ccncc12` [Form III freebase, 5-chloro-2-(4-((2-hydroxy-2-methylpropyl)amino)pyrido[3,4-d]pyridazin-1-yl)phenol], in data set [3], the “XRPD (tested material)” value is given as “Form III”, the “Purity % a/a (tested material)” value amounted to 99.60 % a/a and the “Purity % a/a (input material)” value was found to be 99.54 % a/a. In addition, the “relative stability of Forms I-IV freebases” value in data set [5] (RT and 50° C.) is on record as “converted rapidly”. In data set [5], the “evidence of form by XRPD after 2 days” value is recorded as “no evidence”. In addition, the “XRPD after thermal treatment to 210° C.” value in data set [2] is listed as “conversion to Form I freebase”. Further, in data set [6], the “DVS mass change 5-95% RH (wt. %)” value was determined as 0.24 wt. %; the “water uptake, weight gain between 5-95% relative humidity (RH)” value is reported as “about 0.24%”; the hygroscopicity entry is on record as “slightly, hygroscopic”; the “XRPD pre- and post-DVS” value was “remained unchanged”.
As for `CC(C)(O)CNc1nnc(-c2ccc(Cl)cc2O)c2ccncc12` [Form IV freebase, 5-chloro-2-(4-((2-hydroxy-2-methylpropyl)amino)pyrido[3,4-d]pyridazin-1-yl)phenol], in data set [3], the “XRPD (tested material)” value was “Form IV”, the “Purity % a/a (tested material)” value was determined as 98.53 % a/a and the “Purity % a/a (input material)” value amounted to 99.48 % a/a. Also, in data set [5] (RT and 50° C.), the “relative stability of Forms I-IV freebases” value is “converted rapidly”. For the same molecule, the “evidence of form by XRPD after 2 days” value in data set [5] is given as “no evidence”. Besides, the “XRPD after thermal treatment to 210° C.” value in data set [2] was “conversion to Form I freebase”. Besides, in data set [6], the “DVS mass change 5-95% RH (wt. %)” value turned out to be 1.59 wt. %; the “water uptake, weight gain between 5-95% relative humidity (RH)” value was “about 1.59%”; the hygroscopicity entry is listed as “slightly, hygroscopic”; the “XRPD pre- and post-DVS” value is “remained unchanged”.
As to `CC(C)(O)CNc1nnc(-c2ccc(Cl)cc2O)c2ccncc12` [Pattern B freebase, 5-chloro-2-(4-((2-hydroxy-2-methylpropyl)amino)pyrido[3,4-d]pyridazin-1-yl)phenol], the “form after drying overnight at 50° C.” value in data set [7] and in data set [7] (listed as Pattern B) was “conversion to Form I freebase” each time.
On to `CC(C)(O)CNc1nnc(-c2ccc(Cl)cc2O)c2ccncc12` [Pattern C freebase, 5-chloro-2-(4-((2-hydroxy-2-methylpropyl)amino)pyrido[3,4-d]pyridazin-1-yl)phenol], for which the “form after drying overnight at 50° C.” value is listed as “converted to the low-crystalline version of Form I freebase (Pattern A freebase)” in data set [7] and “converted to Pattern A” in data set [7] (listed as Pattern C).
